Measured values as given in patent US5827516A, “Immunomodulatory peptides” (President and Fellows of Harvard College, priority 1995, dated 1998).
Ends that are not written are not given here.

Columns and labels:
HLA-DR1 [1] = biological target: T1, HLA-DR1 (Homo sapiens, UniProt P01903+P01911, A100R/D57E/F55L/F60I/F76Y/I96L/L162R/M171V/P40L/Q125E/R42F/V115G/Y59C); test: Competition against 125I-labeled HA 307-319 for binding to "empty" HLA-DR1
T1 construct: made in house; host or cells: Sf9 insect cells

HLA-DR1 [2] = biological target: T1, HLA-DR1; test: Resistance to SDS-induced chain dissociation of HLA-DR1 (SDS-PAGE); assay type: binding

Molecule | Ki (HLA-DR1 [1]) [nM] | other results
KMRMATPLLMQALPM [Ii 106-120] | < 10 | 
LPKPPKPVSKMRMATPLLMQALPM [Ii 98-121] | 33 ± 5 | 
CSCC[C@H](NC(=O)[C@H](CCCNC(=N)N)NC(=O)[C@H](CCSC)NC(=O)[C@H](CCCCN)NC(=O)[C@H](CO)NC(=O)[C@@H](NC(=O)[C@@H]1CCCN1C(=O)[C@H](CCCCN)NC(=O)[C@@H]1CCCN1C(=O)[C@@H]1CCCN1C(=O)[C@H](CCCCN)NC(=O)[C@@H]1CCCN1C(=O)[C@@H](N)CC(C)C)C(C)C)C(=O)N[C@@H](C)C(=O)N[C@H](C(=O)O)[C@@H](C)O [Ii 97-111, reference compound] |  | able to compete with HA 307-319 for binding to DR1 (HLA-DR1 [1]): Neither; able to confer resistance to SDS-induced α-β chain dissociation of "empty" DR1 (HLA-DR1 [2]): Neither
Ii 107-120: Ii peptide named in the text as the highest-affinity competitor; probably the Ii 106-120 entry of Table 2 (MRMATPLLMQALPM) |  | relative binding affinity to DR1 among competitor peptides (HLA-DR1 [1]; at first approximation, equivalent to control HA peptide): highest affinity of all the competitor peptides measured
SDLSFSKDWSFYL [β2 m 52-64, reference compound] | > 10000 | 
RVEYHFLSPYVSPKESP [Transf. Recept. 680-696] | < 10 | 
IPADLRIISANGCKVDNS [Na+/K+ ATPase 199-216] | 68 ± 9 | 
VGSDWRFLRGYHQYA [HLA-A2 103-117] | 49 ± 3 | 
